In one assay the test system is p65 subunit of NF-κB. The assay is described as follows: Immunocytochemistry for NF-κB p65 localization in multiple myeloma cell lines. Format: cell-based, human. Conditions: all four multiple myeloma cell lines, curcumin 50 μM, 4 hours. As to the method: Red stain indicates the localization of p65 and blue stain (Hoechst) indicates nucleus (magnification 200×). […] U266 cells (2×10^6 cells/ml) were treated with indicated concentrations of NEMO-control or NBD-peptide (100 μM) for the indicated times. Nuclear extracts were then checked for the presence of NF-κB DNA-binding activity by EMSA. […] Untreated or NBD-peptide-treated (100 μM; 12 h) U266 cells were cytospun, and p65 immunocytochemistry was performed as described. Red stain indicates the localization of p65 and blue stain indicates nucleus (magnification 200×). […] U266 cells (2×10^6 cells/ml) were treated with indicated concentrations of NEMO-control or NBD-peptide (100 μM) for the indicated time periods, and cell viability was monitored by the trypan blue dye exclusion method. Percent cell killing was determined as: (number of trypan blue stained cells/total cells)×100. […] Stained slides were mounted with mounting medium (Sigma Colo.) and analyzed under an epifluorescence microscope (Labophot-2, Nikon, Tokyo, Japan). […] Cells with nuclear staining of NF-κB p65 or STAT3 were counted separately. One hundred cells were counted for each specimen, and the sample was graded on the basis of a 4-point scale: −, no nuclear positive cells (0%); +, low number of nuclear positive cells (<10%); ++, moderate number of nuclear positive cells (10–50%); +++, high number of nuclear positive cells (>50%).

A further assay addresses T1, IκB kinase (Homo sapiens, UniProt O14920+O15111).
T1 construct: 200 μg cytoplasmic extracts were immunoprecipitated with 1 μg of anti-IKKa and IKKb antibodies each; endogenous in cells; host or cells: U266 human multiple myeloma cells (cytoplasmic extract, immunoprecipitate on protein A/G-Sepharose)
Kind of assay: In vitro kinase assay: IKK immunoprecipitated from untreated U266 cells, then treated with curcumin. Format: biochemical. Conditions: curcumin 30 min, GST-IκBα substrate. As to the method:
Five million U266 cells/2.5 ml were treated with curcumin (50 μM) for the indicated times and cytoplasmic extracts were prepared. FIG. 3A: Level of phosphorylated IκBα determined by Western blotting. FIG. 3B: Immunoprecipitated IκB kinase and kinase assay of IκB kinase activity (upper panel) or Western blotting for the analysis of total IKKα and IKKβ proteins in cytoplasmic extracts (lower panel). FIG. 3C: IκB kinase was immunoprecipitated and kinase assay was performed in the absence or presence of the indicated concentrations of curcumin (upper panel). Lower panel indicates the amount of GST-IκBα protein stained with Coomassie Blue in each well in the same dried gel.
The IkB kinase assay was performed with a modified method as described earlier (Manna et al., 2000). Briefly, 200 μg cytoplasmic extracts were immunoprecipitated with 1 μg of anti-IKKa and IKKb antibodies each, and the immune complexes so formed were precipitated with 0.01 ml of protein A/G-Sepharose beads for 2 hour. The beads were washed first with lysis buffer and then with kinase assay buffer (50 mM HEPES pH 7.4, 20 mM MgCl2, and 2 mM DTT). The immune complex was then assayed for kinase activity using kinase assay buffer containing […] [g-P^32]ATP, 10 μM unlabeled ATP, and 2 μg/sample glutathione S-transferase-IkBa (1–54). […] Radioactive bands of the dried gel were visualized and quantitated by PhosphorImager. […]

The subject of the next assay is cyclin D1. The assay is described as follows: Western blot for NF-κB-regulated gene product cyclin D1 in U266 cells. Format: cell-based, human. Particulars: curcumin 50 μM. As to the method:
Sixty micrograms of cytoplasmic extracts were resolved on 10% SDS-PAGE gel, electrotransferred on a nitrocellulose membrane, and probed for the following: IκBα (FIG. 4A); Bcl-2 (FIG. 4B); Bcl-xL (FIG. 4C) and cyclin D1 (FIG. 4D). The same blots were stripped and reprobed with anti-β-actin antibody to show equal protein loading (lower panel in each figure). FIG. 4E: […] U266, MM.1 or RPMI 8226 cells (1×10^7) were treated with curcumin ([…]) in 5 ml of medium for the indicated times. Supernatants were harvested and concentrated approximately 20×, and IL-6 was quantitated by an IL-6 ELISA kit. Values shown were normalized to 1 ml of un-concentrated supernatants. Thirty to fifty micrograms of cytoplasmic protein extracts prepared as described (Chaturvedi et al., 2000) were resolved on 10% SDS-PAGE gel. After electrophoresis, the proteins were electrotransferred to a nitrocellulose membrane, blocked with 5% nonfat milk, and probed with antibodies against either IkBa, phospho-IkBa, Bcl-2, Bcl-xL, or cyclin D1 (1:3000) for 1 h. Thereafter, the blot was washed, exposed to HRP-conjugated secondary antibodies for 1 h, and finally detected by chemiluminescence (ECL, Amersham Pharmacia Biotech., Arlington Heights, Ill.).

A further assay deals with MM.1. The assay is described as follows: Growth of cells, viable cell count by trypan blue dye exclusion. Format: cell-based. Conditions: Homo sapiens, Mm1; MM.1, curcumin 1 μM. The text has this: (§1) The results are shown as the mean (±s. d.) cell count from triplicate cultures.
The subject of another assay is MM.1R. The assay is described as above. Format: cell-based. Conditions: Homo sapiens, curcumin 1 μM.
Text: as §1

The test system of the next assay is RPMI 8226. The assay is described as above. The format is cell-based. Particulars: Homo sapiens; RPMI 8226, curcumin 1 μM.
Text: as §1

The subject of a further assay is PARP. Kind of assay: Western blot for PARP cleavage (apoptosis). Conditions: U266, curcumin 50 μM, time course. Format: cell-based, human. As to the method:
(§2) The cells were washed and total proteins were extracted by lysing the cells. Sixty microgram of extracts were resolved on 10% SDS-PAGE gel, electrotransferred to a nitrocellulose membrane, and probed with anti-procaspase-9 (FIG. 6C), anti-procaspase-7 (FIG. 6D), anti-PARP (FIG. 6E, upper panel) and anti-cleaved PARP (FIG. 6E, lower penal). […] Lysates were then spun at 14000 rpm for 10 min to remove insoluble material, resolved on 7.5% gel and probed with PARP antibodies. PARP was cleaved from the 116-kDa intact protein into 85-kDa and 40-kDa peptide products. To detect cleavage products of procaspase 7 and procaspase 9, whole cell extracts were resolved on 10% gel and probed with appropriate antibodies.
(In general: In western blotting, separated proteins are transferred to a membrane and probed.)

The subject of another assay is caspase-9. Kind of assay: Western blot for procaspase-9 (apoptosis). The format is cell-based, human. Particulars: U266, curcumin 50 μM, time course. The protocol:
as §2

In general, inhibition refers to the percentage by which the read-out fell short of the control. A high value points to a response far below the control.

SMILES strings stand for the structures. Some results are limits rather than exact numbers.

T1 sequence (O15111 whole entry): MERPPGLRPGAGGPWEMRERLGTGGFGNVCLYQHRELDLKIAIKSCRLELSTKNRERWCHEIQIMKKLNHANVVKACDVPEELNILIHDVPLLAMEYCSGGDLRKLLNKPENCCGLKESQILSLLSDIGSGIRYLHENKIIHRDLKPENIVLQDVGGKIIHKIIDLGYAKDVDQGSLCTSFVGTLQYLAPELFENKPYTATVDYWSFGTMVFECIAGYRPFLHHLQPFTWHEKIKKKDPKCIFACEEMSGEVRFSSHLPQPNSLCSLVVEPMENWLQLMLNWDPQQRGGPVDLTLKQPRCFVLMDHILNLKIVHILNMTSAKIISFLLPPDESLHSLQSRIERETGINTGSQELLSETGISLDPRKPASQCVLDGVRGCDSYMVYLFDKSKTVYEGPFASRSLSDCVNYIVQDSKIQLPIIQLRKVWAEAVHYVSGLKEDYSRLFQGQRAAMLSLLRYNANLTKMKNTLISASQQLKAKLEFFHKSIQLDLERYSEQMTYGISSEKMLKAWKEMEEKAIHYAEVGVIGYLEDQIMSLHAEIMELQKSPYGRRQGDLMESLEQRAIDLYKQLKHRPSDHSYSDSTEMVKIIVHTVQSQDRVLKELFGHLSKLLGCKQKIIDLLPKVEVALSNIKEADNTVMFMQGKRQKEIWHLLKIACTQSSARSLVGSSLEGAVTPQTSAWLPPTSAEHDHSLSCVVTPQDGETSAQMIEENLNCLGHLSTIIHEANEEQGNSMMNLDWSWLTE
T1 sequence (O14920 whole entry): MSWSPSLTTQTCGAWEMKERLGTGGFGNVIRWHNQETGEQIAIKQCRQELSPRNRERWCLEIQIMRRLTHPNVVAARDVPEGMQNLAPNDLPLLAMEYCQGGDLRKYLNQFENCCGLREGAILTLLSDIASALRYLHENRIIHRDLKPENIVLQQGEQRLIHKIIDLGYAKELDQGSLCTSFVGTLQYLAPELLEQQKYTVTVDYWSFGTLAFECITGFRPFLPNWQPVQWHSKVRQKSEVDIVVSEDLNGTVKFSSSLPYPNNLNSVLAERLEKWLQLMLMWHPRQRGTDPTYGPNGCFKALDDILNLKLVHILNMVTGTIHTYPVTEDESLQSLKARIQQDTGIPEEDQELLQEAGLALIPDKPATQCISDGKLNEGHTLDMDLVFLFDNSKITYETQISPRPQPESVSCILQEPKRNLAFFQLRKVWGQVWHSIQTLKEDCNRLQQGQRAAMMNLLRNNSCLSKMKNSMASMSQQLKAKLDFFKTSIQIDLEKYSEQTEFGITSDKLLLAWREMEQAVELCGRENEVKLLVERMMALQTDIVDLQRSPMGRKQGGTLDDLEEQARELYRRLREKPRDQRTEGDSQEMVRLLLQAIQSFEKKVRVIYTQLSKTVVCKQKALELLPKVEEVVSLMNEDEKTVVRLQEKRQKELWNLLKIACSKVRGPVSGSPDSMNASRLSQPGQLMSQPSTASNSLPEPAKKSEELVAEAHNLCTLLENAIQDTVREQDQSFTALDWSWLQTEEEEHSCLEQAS
T1 sequence (Q9Y6K9 whole entry partner): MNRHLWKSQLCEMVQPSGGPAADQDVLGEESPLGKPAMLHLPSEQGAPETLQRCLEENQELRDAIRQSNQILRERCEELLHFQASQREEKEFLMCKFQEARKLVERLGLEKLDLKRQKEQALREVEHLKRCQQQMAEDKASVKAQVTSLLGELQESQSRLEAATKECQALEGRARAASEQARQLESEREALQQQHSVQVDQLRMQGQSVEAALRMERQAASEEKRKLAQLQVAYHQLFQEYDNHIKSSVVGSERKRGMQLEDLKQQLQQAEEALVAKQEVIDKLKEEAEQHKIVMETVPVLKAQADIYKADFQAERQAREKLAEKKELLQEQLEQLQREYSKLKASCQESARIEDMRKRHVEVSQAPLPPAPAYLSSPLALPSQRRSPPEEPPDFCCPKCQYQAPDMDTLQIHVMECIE

In the case of `COc1cc(/C=C/C(=O)CC(=O)/C=C/c2ccc(O)c(OC)c2)ccc1O` [curcumin, diferuloylmethane], the “nuclear translocation of p65” value with p65 subunit of NF-κB was “prevented the translocation of the p65 subunit of NF-κB to the nucleus”. Further, the “direct inhibition of IκB kinase activity” value on IκB kinase is listed as “inhibited IκB kinase activity directly in a dose-dependent manner”. Besides, the “time to complete depletion of cyclin D1” value in the assay on cyclin D1 is no more than 4 h. The figures for the inhibition at 1 µM with MM.1, in the assay with MM.1R and in the assay on RPMI 8226 were 45%, 51% and 23%, respectively. Besides, the PARP cleavage result with PARP is given as “cleavage of a 118-kDa PARP protein into an 89-kDa fragment”. Besides, the “activation of caspase-9 (disappearance of 47-kDa band)” value in the assay on caspase-9 is “time-dependent activation”.

(Values after US7196105B2, “Treatment of human multiple myeloma by curcumin” (Research Development Foundation, priority 2002, dated 2007).)
